The results in this text go back to patent US11517597B2, “Method for improving skin condition with postbiotic extract” (CHAMBIO CO., LTD., priority 2020, dated 2022).

Experiment [1] has as its system Hs68 cells. The experiment is described as follows: TGF-β content of Hs68 cells (ELISA). Type of experiment: cell-based, Human. To be noted: 24 hours. The procedure: (§1) • 2. Human foreskin fibroblast cell line Hs68 was purchased from the Bioresource Collection and Research Center of the Food Industry Research and Development Institute (BCRC of FIRDI, Taiwan). Hs68 cells were grown in a 10-cm Petri dish containing Dulbecco's Modified Eagle's Medium (DMEM) (Thermo Fisher Scientific) supplemented with 10% fetal bovine serum (FBS). The Hs68 cells were cultivated in an incubator with culture conditions set at 37° C. and 5% CO2. Medium change was performed every two to three days. Cell passage was performed when the cultured cells reached 80%-90% of confluence. • 3.
General Procedures: • 1. Determination of transforming growth factor-β (TGF-β) content
The TGF-β content was determined using an enzyme-linked immunosorbent assay (ELISA) kit (Cat. No. 559119, BD Biosciences) in accordance with the manufacturer's instructions.
Hs68 cells were divided into 25 groups, including one control group, twelve comparative groups (i.e., comparative groups L-1 to L-6 and B-1 to B-6), and twelve experimental groups (i.e., experimental groups L-1 to L-6 and B-1 to B-6). Each group of the Hs68 cells was incubated in a respective well of a 96-well culture plate containing 200 μL of DMEM at 1×10^4 cells/well, followed by cultivation in an incubator (37° C., 5% CO2) for 24 hours. […] The cell culture of the control group received no treatment.
After cultivation in an incubator (37° C., 5% CO2) for 24 hours, the respective resultant cell culture was subjected to the determination of TGF-β content according to the method described in section 1 of “General Procedures”.
(§2) Hs68 cells were divided into 28 groups, including fourteen comparative groups (i.e., comparative groups 1 L to 7 L and 1H to 7H) and fourteen experimental groups (i.e., experimental groups 1 L to 7 L and 1B to 7B). Each group of the Hs68 cells was incubated in a respective well of a 96-well culture plate containing 200 μL of DMEM at 1×10^4 cells/well, followed by cultivation in an incubator (37° C., 5% CO2) for 24 hours.
In general terms: An ELISA detects its analyte on a solid surface through an enzyme-linked reagent.

The test system of experiment [2] is Hs68 cells. The experiment is described as follows: Proliferation of Hs68 cells (MTT, OD570 converted to cell number). To be noted: 24 hours. Type of experiment: cell-based, Human. The procedure: as §1
Hs68 cells were divided into 3 groups, including one control group and two experimental groups (i.e., experimental groups L and B). Each group of the Hs68 cells was incubated in a respective well of a 96-well culture plate containing 200 μL of DMEM at 1×10^4 cells/well, followed by cultivation in an incubator (37° C., 5% CO2) for 24 hours. […] The cell culture of the control group received no treatment.
After cultivation in an incubator (37° C., 5% CO2) for 24 hours, the respective resultant cell culture was stained with 3-(4,5-Dimethylthiazol-2-yl)-2,5-diphenyltetrazolium bromide (MTT), followed by subjecting the stained cells to determination of absorbance at a wavelength of 570 nm by a spectrophotometer. The OD570 values obtained were subsequently converted to cell numbers based on a correlation curve previously prepared by plotting different known cell numbers of Hs68 cells versus their OD570 values.
as §2
After cultivation in an incubator (37° C., 5% CO2) for 24 hours, the cell number of each group was determined according to the method described in section C of this example. The fold increase of viable cells was calculated using the following Equation (II): C=D/E (II) where C=fold increase of viable cells • D=cell number of respective experimental group or comparative group • E=cell number of corresponding comparative group 1 L, 2 L, 3 L, 4 L, 5 L, 6 L, or 7 L

[3] abbreviates: nutritional component only 100 mg/L.
Where [4] appears, read: nutritional component only 200 mg/L.
Setting [5] is: nutritional component only 100 mg/L (the reference group of Equation II).
The mark [6] stands for this setting: nutritional component only 200 mg/L, relative to 100 mg/L group.

For Chondroitin, the TGF-β content in experiment [1] (setting [3]) is on record as 120.5 pg/mL; in experiment [1] (setting [4]), 128.8 pg/mL. The “Fold increase of viable Cells” value is on record as 1.0 in experiment [2] (setting [5]) and 1.1 in experiment [2] (setting [6]).
Taken in the same sequence, the figures for `N[C@H]1C(O)O[C@H](CO)[C@@H](O)[C@@H]1O` (stereo partly drawn) [Glucosamine] were 51.1 pg/mL, 61.3 pg/mL, 1.0 and 1.1.
Take `O=C1O[C@H]([C@@H](O)CO)C(O)=C1O` [Vitamin C]: the TGF-β content in experiment [1] (setting [3]) was 52.2 pg/mL; in experiment [1] (setting [4]) it was 63.1 pg/mL. Besides, the “Fold increase of viable Cells” value is recorded as 1.0 in experiment [2] (setting [5]) and 1.1 in experiment [2] (setting [6]).
